Reference: patent US8716303B2, “N-(hetero)aryl-pyrrolidine derivatives of pyrazol-4-yl-pyrrolo[2,3-d]pyrimidines and pyrrol-3-yl-pyrrolo[2,3-d]pyrimidines as janus kinase inhibitors” (Incyte Corporation, priority 2009, dated 2014)
Counter-ions that a name gives are not always drawn.

Assays:
[1] = target: T1, human JAK1 (a.a. 837-1142) (Homo sapiens, UniProt P23458); experiment: In vitro JAK kinase assay (HTRF, phosphorylation of a biotinylated peptide), JAK1; type: biochemical
T1 construct: human JAK1 (a.a. 837-1142); His tag (N); made in house; host or cells: insect cells (baculovirus)
Protocol: (§1) Compounds herein were tested for inhibitory activity of JAK targets according to the following in vitro assay described in Park et al., Analytical Biochemistry 1999, 269, 94-104. The catalytic domains of human JAK1 (a.a. 837-1142), Jak2 (a.a. 828-1132) and Jak3 (a.a. 781-1124) with an N-terminal His tag were expressed using baculovirus in insect cells and purified. The catalytic activity of JAK1, JAK2 or JAK3 was assayed by measuring the phosphorylation of a biotinylated peptide. The phosphorylated peptide was detected by homogenous time resolved fluorescence (HTRF). IC50s of compounds were measured for each kinase in the 40 microL reactions that contain the enzyme, ATP and 500 nM peptide in 50 mM Tris (pH 7.8) buffer with 100 mM NaCl, 5 mM DTT, and 0.1 mg/mL (0.01%) BSA. The ATP concentration in the reactions was 90 μM for Jak1, 30 μM for Jak2 and 3 μM for Jak3 for Km conditions. For the 1 mM IC50 measurements, ATP concentration in the reactions was 1 mM. Reactions were carried out at RT for 1 h and then stopped with 20 μL 45 mM EDTA, 300 nM SA-APC, 6 nM Eu-Py20 in assay buffer (Perkin Elmer, Boston, Mass.). Binding to the Europium labeled antibody took place for 40 min and HTRF signal was measured on a Fusion plate reader (Perkin Elmer, Boston, Mass.).
(§2) Compounds herein were tested for inhibitory activity of JAK1 and JAK2 targets according to the assay of Example A (experiments run at Km or 1 mM as indicated). The symbol “+” indicates an IC50<50 nM; the symbol “++” indicates an IC50≧50 and ≦100 nM; and the symbol “+++” indicates an IC50>100 and ≦500 nM.

Jak2 (a.a. 828-1132) = target: T2, Jak2 (a.a. 828-1132) (Homo sapiens, UniProt O60674); experiment: In vitro JAK kinase assay (HTRF, phosphorylation of a biotinylated peptide), JAK2, reported as JAK2/JAK1 ratio; type: biochemical
T2 construct: Jak2 (a.a. 828-1132); His tag (N); made in house; host or cells: insect cells (baculovirus)
Protocol: as §1, §2

[2] = Assay Conditions Km (ATP 90 μM for Jak1)
[3] = Assay Conditions Km (ATP 90 μM for Jak1, 30 μM for Jak2)

T2 sequence (O60674 828-1132): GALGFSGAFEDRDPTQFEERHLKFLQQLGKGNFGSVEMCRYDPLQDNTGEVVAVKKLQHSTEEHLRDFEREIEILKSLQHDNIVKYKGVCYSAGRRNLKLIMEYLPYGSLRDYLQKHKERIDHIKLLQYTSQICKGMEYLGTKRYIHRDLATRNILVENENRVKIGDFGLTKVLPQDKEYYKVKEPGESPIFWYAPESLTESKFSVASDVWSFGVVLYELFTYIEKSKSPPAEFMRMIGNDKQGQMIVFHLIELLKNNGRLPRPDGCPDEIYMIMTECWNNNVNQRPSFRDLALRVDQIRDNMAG
T1 sequence (P23458 849-1154): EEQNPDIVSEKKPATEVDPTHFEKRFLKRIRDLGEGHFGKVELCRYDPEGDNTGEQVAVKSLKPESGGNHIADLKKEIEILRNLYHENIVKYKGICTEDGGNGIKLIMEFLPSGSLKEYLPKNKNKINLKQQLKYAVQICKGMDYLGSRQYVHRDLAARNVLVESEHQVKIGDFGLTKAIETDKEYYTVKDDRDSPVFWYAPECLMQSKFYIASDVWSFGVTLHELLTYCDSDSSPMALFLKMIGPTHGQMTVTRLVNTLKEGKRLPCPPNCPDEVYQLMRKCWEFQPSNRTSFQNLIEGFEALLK

IC50 ([1]; Assay Conditions 1 mM ATP) [nM] | JAK2/JAK1 IC50 ratio (Jak2 (a.a. 828-1132); Assay Conditions 1 mM ATP) | IC50 [1, 2] [nM] | JAK2/JAK1 IC50 ratio (Jak2 (a.a. 828-1132); [3]) | Structure (SMILES)
50 to 100 | 6 |  |  | Cn1cc(Cl)nc(N2CCC(C(CC#N)n3cc(-c4ncnc5[nH]ccc45)cn3)C2)c1=O (racemic) [Example 36, ±3-[1-(6-chloro-4-methyl-3-oxo-3,4-dihydropyrazin-2-yl)pyrrolidin-3-yl]-3-[4-(7H-pyrrolo[2,3-d]pyrimidin-4-yl)-1H-pyrazol-1-yl]propanenitrile trifluoroacetate]
< 50 | >8.7 |  |  | Cn1ccnc(N2CCC(C(CC#N)n3cc(-c4ncnc5[nH]ccc45)cn3)C2)c1=O (racemic) [Example 37, ±3-[1-(4-methyl-3-oxo-3,4-dihydropyrazin-2-yl)pyrrolidin-3-yl]-3-[4-(7H-pyrrolo[2,3-d]pyrimidin-4-yl)-1H-pyrazol-1-yl]propanenitrile trifluoroacetate]
50 to 100 | 3.3 |  |  | N#CCC(C1CCN(c2nccc(C#N)c2Cl)C1)n1cc(-c2ncnc3[nH]ccc23)cn1 (racemic) [Example 38, ±3-chloro-2-(3-{2-cyano-1-[4-(7H-pyrrolo[2,3-d]pyrimidin-4-yl)-1H-pyrazol-1-yl]ethyl}pyrrolidin-1-yl)isonicotinonitrile trifluoroacetate]
< 50 | 15.5 |  |  | N#CCC(C1CCN(c2nccc(C#N)c2C#N)C1)n1cc(-c2ncnc3[nH]ccc23)cn1 (racemic) [Example 39, ±2-(3-{2-cyano-1-[4-(7H-pyrrolo[2,3-d]pyrimidin-4-yl)-1H-pyrazol-1-yl]ethyl}pyrrolidin-1-yl)pyridine-3,4-dicarbonitrile trifluoroacetate]
< 50 | 7.1 |  |  | CSc1cccc(N2CCC(C(CC#N)n3cc(-c4ncnc5[nH]ccc45)cn3)C2)c1C#N (racemic) [Example 40, ±2-(3-{2-cyano-1-[4-(7H-pyrrolo[2,3-d]pyrimidin-4-yl)-1H-pyrazol-1-yl]ethyl}pyrrolidin-1-yl)-6-(methylthio)benzonitrile]
< 50 | 11 |  |  | CS(=O)(=O)c1cccc(N2CCC(C(CC#N)n3cc(-c4ncnc5[nH]ccc45)cn3)C2)c1C#N (racemic) [Example 41, ±2-(3-{2-cyano-1-[4-(7H-pyrrolo[2,3-d]pyrimidin-4-yl)-1H-pyrazol-1-yl]ethyl}pyrrolidin-1-yl)-6-(methylsulfonyl)benzonitrile]
 |  | < 50 | 6.0 | N#CCC(C1CCN(c2ccc3cccc(Cl)c3n2)C1)n1cc(-c2ncnc3[nH]ccc23)cn1 (racemic) [Example 42, ±3-[1-(8-chloroquinolin-2-yl)pyrrolidin-3-yl]-3-[4-(7H-pyrrolo[2,3-d]pyrimidin-4-yl)-1H-pyrazol-1-yl]propanenitrile]
< 50 | 4.0 |  |  | CCS(=O)(=O)c1cc(N2CCC(C(CC#N)n3ccc(-c4ncnc5[nH]ccc45)c3)C2)ccn1 (racemic) [Example 148-rac, 3-{1-[2-(ethylsulfonyl)pyridin-4-yl]pyrrolidin-3-yl}-3-[3-(7H-pyrrolo[2,3-d]pyrimidin-4-yl)-1H-pyrrol-1-yl]propanenitrile]
< 50 | 9.9 |  |  | N#CCC(C1CCN(c2scnc2C#N)C1)n1ccc(-c2ncnc3[nH]ccc23)c1 (racemic) [Example 149-1, 5-(3-{2-cyano-1-[3-(7H-pyrrolo[2,3-d]pyrimidin-4-yl)-1H-pyrrol-1-yl]ethyl}pyrrolidin-1-yl)-1,3-thiazole-4-carbonitrile]
< 50 | 4.5 |  |  | N#CCC(C1CCN(c2scnc2C#N)C1)n1ccc(-c2ncnc3[nH]ccc23)c1 (racemic) [Example 149-2, 5-(3-{2-cyano-1-[3-(7H-pyrrolo[2,3-d]pyrimidin-4-yl)-1H-pyrrol-1-yl]ethyl}pyrrolidin-1-yl)-1,3-thiazole-4-carbonitrile]
< 50 | 14.5 |  |  | N#CCC(C1CCN(c2scnc2C#N)C1)n1ccc(-c2ncnc3[nH]ccc23)c1 (racemic) [Example 149-rac, 5-(3-{2-cyano-1-[3-(7H-pyrrolo[2,3-d]pyrimidin-4-yl)-1H-pyrrol-1-yl]ethyl}pyrrolidin-1-yl)-1,3-thiazole-4-carbonitrile]
< 50 | 4.5 |  |  | N#CCC(C1CCN(c2ncc3ccoc3c2C#N)C1)n1ccc(-c2ncnc3[nH]ccc23)c1 (racemic) [Example 170-rac, 6-(3-{2-cyano-1-[3-(7H-pyrrolo[2,3-d]pyrimidin-4-yl)-1H-pyrrol-1-yl]ethyl}pyrrolidin-1-yl)furo[3,2-c]pyridine-7-carbonitrile]
< 50 | 21.9 |  |  | N#CCC(C1CCN(c2ncc3c(c2C#N)S(=O)(=O)CC3)C1)n1ccc(-c2ncnc3[nH]ccc23)c1 (racemic) [Example 171-rac, 6-(3-{2-cyano-1-[3-(7H-pyrrolo[2,3-d]pyrimidin-4-yl)-1H-pyrrol-1-yl]ethyl}pyrrolidin-1-yl)-2,3-dihydrothieno[3,2-c]pyridine-7-carbonitrile 1,1-dioxide]
< 50 | 53.3 |  |  | N#CCC(C1CCN(c2ncc3ccsc3c2C#N)C1)n1ccc(-c2ncnc3[nH]ccc23)c1 (racemic) [Example 176-rac, 6-(3-{2-cyano-1-[3-(7H-pyrrolo[2,3-d]pyrimidin-4-yl)-1H-pyrrol-1-yl]ethyl}pyrrolidin-1-yl)thieno[3,2-c]pyridine-7-carbonitrile]
 |  | < 50 | 3 | N#CCC(C1CCN(c2cncc(Cl)n2)C1)n1cc(-c2ncnc3[nH]ccc23)cn1 (single isomer, unassigned) [1 (rac)]
 |  | < 50 | 7.3 | N#CCC(C1CCN(c2cccc(Cl)n2)C1)n1cc(-c2ncnc3[nH]ccc23)cn1 (single isomer, unassigned) [2, Step 2a]
 |  | < 50 | 3.7 | N#CCC(C1CCN(c2cccc(Cl)n2)C1)n1cc(-c2ncnc3[nH]ccc23)cn1 (single isomer, unassigned) [2, Step 2b]
 |  | < 50 | 2.3 | N#CCC(C1CCN(c2ccnc(Cl)n2)C1)n1cc(-c2ncnc3[nH]ccc23)cn1 (single isomer, unassigned) [3, Step 2a]
 |  | < 50 | 8.5 | N#CCC(C1CCN(c2ccnc(Cl)n2)C1)n1cc(-c2ncnc3[nH]ccc23)cn1 (single isomer, unassigned) [3, Step 2b]
 |  | < 50 | 1.9 | N#CCC(C1CCN(c2nc3ccccc3o2)C1)n1cc(-c2ncnc3[nH]ccc23)cn1 (single isomer, unassigned) [9, Step 3a]
 |  | < 50 | 6.3 | N#CCC(C1CCN(c2nc3ccccc3o2)C1)n1cc(-c2ncnc3[nH]ccc23)cn1 (single isomer, unassigned) [9, Step 3b]
50 to 100 | 5.6 |  |  | N#CCC(n1cc(-c2ncnc3[nH]ccc23)cn1)C1(F)CCN(c2nc3cccnc3o2)C1 (single isomer, unassigned) [31, Step 4a, enantiomer 1]
50 to 100 | 5.1 |  |  | N#CCC(n1cc(-c2ncnc3[nH]ccc23)cn1)C1(F)CCN(c2nc3cccnc3o2)C1 (single isomer, unassigned) [31, Step 4a, enantiomer 2]
100 to 500 | >2.5 |  |  | N#CCC(n1cc(-c2ncnc3[nH]ccc23)cn1)C1(F)CCN(c2nc3cccnc3o2)C1 (single isomer, unassigned) [31, Step 4b, enantiomer 1]
100 to 500 | 0.8 |  |  | N#CCC(n1cc(-c2ncnc3[nH]ccc23)cn1)C1(F)CCN(c2nc3cccnc3o2)C1 (single isomer, unassigned) [31, Step 4b, enantiomer 2]
< 50 |  |  |  | N#CC[C@@H]([C@H]1CCN(c2nc(Cl)c(F)cc2NC=O)C1)n1cc(-c2ncnc3[nH]ccc23)cn1 [Example 92, N-(2-((S)-3-((S)-1-(4-(7H-pyrrolo[2,3-d]pyrimidin-4-yl)-1H-pyrazol-1-yl)-2-cyanoethyl)pyrrolidin-1-yl)-6-chloro-5-fluoropyridin-3-yl)formamide trifluoroacetate]
< 50 |  |  |  | N#CC[C@@H]([C@H]1CCN(c2ncc(CC(F)F)nc2C#N)C1)n1cc(-c2ncnc3[nH]ccc23)cn1 [Example 139, 3-((3S)-3-{(1S)-2-cyano-1-[4-(7H-pyrrolo[2,3-d]pyrimidin-4-yl)-1H-pyrazol-1-yl]ethyl}pyrrolidin-1-yl)-6-(2,2-difluoroethyl)pyrazine-2-carbonitrile trifluoroacetate]
